From US20210227854A1, “USE OF D-RIBOSE TO ENHANCE ADAPTATION TO PHYSICAL STRESS” (Bioenergy Life Science, Inc., priority 2014, published 2021)

Assays:
[1] = Tolerability of supplementation in the exercise study; type: in vivo, human; conditions: 10 g/day; 26 subjects
Experimental: A high-intensity exercise protocol was designed as a double-blind, crossover study to assess the influence of D-Ribose adaptation to physical stress. Specifically, D-Ribose and a control (Dextrose) were administered on separate subjects at a dosage of ten grams per day (10 g/day). A variety of physiological parameters were measured in the subjects administered D-Ribose (DR) supplementation (i.e., the DR subjects) versus the subjects administered Dextrose (DEX) supplementation (i.e., the DEX subjects).
The subjects consisted of twenty-six (26) healthy individual (10 females, 16 males). Each subject was randomly categorized as a DR subject or a DEX subject for the administration of supplementation. Furthermore, each subject was required to maintain his or her normal diet during the study, as well as performing his or her normal daily activities without performing any additional separate exercise sessions not part of the study protocol. […]

[2] = Blood glucose levels during exercise; type: in vivo, human; conditions: mean (SD)
Experimental: A high-intensity exercise protocol was designed as a double-blind, crossover study to assess the influence of D-Ribose adaptation to physical stress. Specifically, D-Ribose and a control (Dextrose) were administered on separate subjects at a dosage of ten grams per day (10 g/day). A variety of physiological parameters were measured in the subjects administered D-Ribose (DR) supplementation (i.e., the DR subjects) versus the subjects administered Dextrose (DEX) supplementation (i.e., the DEX subjects). To test D-ribose for adaptation, the twenty-six (26) adult subjects were further divided into two subgroups based on their fitness level (i.e., peak oxygen uptake (VO2 max) results. The first subgroup comprised subjects with higher VO2 max results (i.e., the “Fit Subgroup”) and the second subgroup comprised subjects with lower VO2 max results (i.e., the “Unfit Subgroup”). The Unfit Subgroup consisted of six (6) females and seven (7) males. The average age of the Unfit Subgroup was 27.7±3.4 years and the average peak VO2 of the Unfit Subgroup was 39.9±4.1 mL/kg/min. The Fit Subgroup consisted of four (4) females and nine (9) males. The average age of the Fit Subgroup was 27.6±3.5 year and the average peak VO2 of the Fit Subgroup was 52.2±4.3 mL/kg/min. Physiologic parameters were measured and hydration was provided to the subjects during the exercise session. The same protocol for testing and hydration protocol was followed for both DR subjects and DEX subjects. Blood samples were drawn from each subject via a venipuncture technique at the following time periods: • Ten (10) minutes before commencement of exercise; • Twenty (20) minutes after the commencement of and during exercise; • Forty (40) minutes after the commencement of and during exercise; • Sixty (60) minutes after the commencement of and during exercise; and • Twenty-four (24) hours after the conclusion of exercise (twenty-five (25) hours after the commencement of exercise). Blood glucose was measured at all of the above time points except at twenty-four (24) hours post-exercise. Creatine kinase and BUN levels were measured at the pre-exercise (−10 min.) point during the three (3) days of exercise and twenty-four (24) hours post-exercise following the third (last) exercise session. Heart rate was recorded using a Polar HR monitor. Blood glucose levels were measured using a Bayer glucose monitor. Blood lactate levels were measured by an AccuSport Lactate Analyzer. Creatine kinase and BUN were measured utilizing an Abaxis Piccolo analyzer. Power data from the time trial performance test was assessed with the Sports Medicine Industries (SMI) software package.

| SMILES | Tolerability of supplement [1] | Blood glucose level during exercise ([2]; Fit Subgroup, 19.5) | Blood glucose level during exercise ([2]; Fit Subgroup, 39.5) | Blood glucose level during exercise ([2]; Fit Subgroup, 59.5) | Blood glucose level during exercise ([2]; Unfit Subgroup, 19.5) | Blood glucose level during exercise ([2]; Unfit Subgroup, 39.5) | Blood glucose level during exercise ([2]; Unfit Subgroup, 59.5) |
| --- | --- | --- | --- | --- | --- | --- | --- |
| O=C[C@H](O)[C@@H](O)[C@H](O)[C@H](O)CO [DEX, Dextrose, reference compound] | without any subjective complaints or issues | 4.0 (0.6) mM/L | 4.1 (0.7) mM/L | 4.0 (0.6) mM/L | 4.0 (0.5) mM/L | 4.0 (0.5) mM/L | 3.9 (0.6) mM/L |
| O=C[C@H](O)[C@H](O)[C@H](O)CO [DR, D-Ribose] | without any subjective complaints or issues | 3.8 (0.5) mM/L | 4.0 (0.5) mM/L | 3.9 (0.5) mM/L | 4.0 (0.6) mM/L | 4.0 (0.6) mM/L | 4.1 (0.7) mM/L |
